Legend:
[1] = Ratio of compound AUC (0 to 24 hrs) to ACY-1215 AUC (0 to 24 hrs) in C57BL/6 mouse lung at 40 mg/kg, po administered via gavage by LC-MS/MS analysis; assay type: ADME, organism-based; conditions: in vivo
[2] = Ratio of compound AUC (0 to 24 hrs) to ACY-1215 AUC (0 to 24 hrs) in C57BL/6 mouse plasma at 40 mg/kg, po administered via gavage by LC-MS/MS analysis; assay type: ADME, organism-based; conditions: in vivo

SMILES: O=C(NO)c1ccc(Cn2c(=O)n(CCc3ccccc3)c(=O)c3ccccc32)cc1
- Ratio AUC [1]: 2.1
- Ratio AUC [2]: 0.2

Source: ChEMBL document CHEMBL4330076, “Quinazolin-2,4-dione-Based Hydroxamic Acids as Selective Histone Deacetylase-6 Inhibitors for Treatment of Non-Small Cell Lung Cancer” (J Med Chem, 2019)
